One block for each compound: values may come before it.
Columns and labels:
[1] = five years of therapy; cited from earlier work
[2] = women at high risk for breast cancer; cited from earlier work
ERα = biological target: T1, ERα (Homo sapiens, UniProt P03372); assay: ERE-tk-Luc luciferase transient transfection assay in U2OS cells with ERα; format: cell-based; conditions: ERα expression vector
T1 construct: expressed in transfected cells; host or cells: U2OS (human osteosarcoma)
T1 sequence (P03372 1-595): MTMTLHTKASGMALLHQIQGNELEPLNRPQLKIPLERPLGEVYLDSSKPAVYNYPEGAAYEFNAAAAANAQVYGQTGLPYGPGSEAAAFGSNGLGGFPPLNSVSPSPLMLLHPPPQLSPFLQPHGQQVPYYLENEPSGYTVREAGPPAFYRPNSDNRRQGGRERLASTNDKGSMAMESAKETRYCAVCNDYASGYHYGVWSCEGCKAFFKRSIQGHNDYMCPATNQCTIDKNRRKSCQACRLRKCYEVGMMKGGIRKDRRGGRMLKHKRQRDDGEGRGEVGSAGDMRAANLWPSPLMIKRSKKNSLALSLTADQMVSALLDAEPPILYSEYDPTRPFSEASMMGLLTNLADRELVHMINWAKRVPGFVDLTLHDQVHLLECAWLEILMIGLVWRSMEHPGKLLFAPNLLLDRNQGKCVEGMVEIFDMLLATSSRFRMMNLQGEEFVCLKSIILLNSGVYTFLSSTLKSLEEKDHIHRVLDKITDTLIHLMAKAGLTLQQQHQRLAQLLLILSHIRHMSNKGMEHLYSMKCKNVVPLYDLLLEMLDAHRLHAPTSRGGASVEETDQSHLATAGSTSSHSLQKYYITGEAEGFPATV

[3] = test system: MCF-7 breast cancer cells; assay: MCF-7 kidney capsule graft tumor formation in nude mice; format: in vivo, CD-1/Nude female mice; conditions: MCF-7 grafts, 28 days, subcutaneous Alzet pump, 2 mg/200 μL for 6, 360 μg/200 μL for estradiol
Description: (§1) The effects of 6 were tested in vivo on breast cancer tumor formation and uterine proliferation. CD-1/Nude female mice, 40-50 days old at time of grafting were selected. Each mouse received 2 grafts per kidney, 4 grafts total with MCF-7 breast cancer cells in 25 μL collagen per graft. Compound 6 was delivered subcutaneously with a Alzet Osmotic pump filled with 200 μL of 6 for 28 days. […] At the end of 28 days of treatment, all grafts and uteri were isolated, pictures taken, weighed, and fixed in formalin.

ERβ [4] = biological target: T2, ERβ (Homo sapiens, UniProt Q92731); assay: Repression of TNF-α activation of TNF-RE tkLuc in U2OS cells with ERβ; format: cell-based; design: expressed in transfected cells; host or cells: U2OS (human osteosarcoma)
ERβ [5] = biological target: T2, ERβ; assay: ERE-tk-Luc luciferase transient transfection assay in U2OS cells with ERβ
ERβ [6] = biological target: T2, ERβ; assay: ER binding curves (ERβ compared with ERα)
uterine proliferation = assay: Uterine proliferation in nude mice, 28 days subcutaneous osmotic pump; format: in vivo, CD-1/Nude female mice; conditions: subcutaneous Alzet pump, 2 mg/200 μL for 6, 360 μg/200 μL for estradiol
Description: as §1

T2 sequence (Q92731 whole entry): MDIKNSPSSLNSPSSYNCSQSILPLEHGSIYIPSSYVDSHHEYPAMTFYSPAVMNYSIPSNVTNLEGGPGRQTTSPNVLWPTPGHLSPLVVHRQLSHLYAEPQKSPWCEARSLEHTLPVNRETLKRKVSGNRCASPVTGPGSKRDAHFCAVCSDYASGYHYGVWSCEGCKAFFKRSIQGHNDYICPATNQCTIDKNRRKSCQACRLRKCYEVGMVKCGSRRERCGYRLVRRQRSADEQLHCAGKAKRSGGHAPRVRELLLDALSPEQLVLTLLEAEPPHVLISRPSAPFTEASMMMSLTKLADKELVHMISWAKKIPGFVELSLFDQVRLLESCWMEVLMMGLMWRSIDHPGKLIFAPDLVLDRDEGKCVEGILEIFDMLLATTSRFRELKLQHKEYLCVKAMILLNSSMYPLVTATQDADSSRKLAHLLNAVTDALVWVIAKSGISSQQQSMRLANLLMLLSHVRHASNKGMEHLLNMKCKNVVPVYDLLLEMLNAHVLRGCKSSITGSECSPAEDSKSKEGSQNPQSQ

Compound: CC/C(=C(\c1ccccc1)c1ccc(OCCN(C)C)cc1)c1ccccc1 [tamoxifen]
reduction of mortality from breast cancer [1]: 22%
reduction of the risk of recurrences [1]: 42%
reduction of the risk of primary invasive breast cancer [2]: 49%

Compound: emodin [compound 1]
repression of TNF-α activation of TNF-RE in the presence of ERβ (ERβ [4]): produced repression
ERβ-activation of ERE-tk-luc in the presence of compound and raloxifene (ERβ [5]; listed as Emodin): attenuated
ERβ-activation of ERE-tk-luc in the presence of compound and raloxifene (ERβ [5]; listed as emodin): repressed
ERβ-activation of ERE-tk-luc in the presence of compound and tamoxifen (ERβ [5]; listed as Emodin): attenuated
ERβ-activation of ERE-tk-luc in the presence of compound and tamoxifen (ERβ [5]; listed as emodin): repressed
ERβ-binding curve as compared to the ERα-binding curve (ERβ [6]): very similar

Compound: aloe-emodin [compound 2]
repression of TNF-α activation of TNF-RE in the presence of ERβ (ERβ [4]): produced repression
ERβ-activation of ERE-tk-luc in the presence of compound and raloxifene (ERβ [5]): attenuated
ERβ-activation of ERE-tk-luc in the presence of compound and tamoxifen (ERβ [5]): attenuated

Continued, in another order:

activation of ERE-tk-Luc in the presence of ERα (ERα): no effect on ERα
Compound: O=C1c2c(O)c(O)c(O)c(O)c2C(=O)c2c(O)c(O)c(O)c(O)c21 [compound 6, octahydroxyanthraquinone]
tumor formation / proliferation in kidney capsule grafts as compared to control [3]: does not increase breast cancer tumor formation
tumor formation / proliferation in kidney capsule grafts as compared to control ([3]; listed as octahydroxyanthraquinone): suppresses tumor proliferation

repression of TNF-α activity on ERβ (ERβ [4]; data not shown): 100%
Compound: C[C@]12CC[C@@H]3c4ccc(O)cc4CC[C@H]3[C@@H]1CC[C@@H]2O [estradiol, reference compound]
uterine proliferation as compared to control (uterine proliferation): stimulates uterine proliferation

Source: patent publication US20090312437A1, “Anthraquinones and Analogs from Rhuem palmatum for Treatment of Estrogen Receptor Beta-Mediated Conditions” (Bionovo, Inc., A Delaware Corporation, priority 2008, published 2009)
